A short description of data set [1]: In vitro metabolic stability in cryopreserved human hepatocytes. It is filed as in vitro ADME. As to conditions: 1 μM test compound. How it is done: Cryopreserved Hepatocytes (e.g. purchased from Celsis InVitroTechnologies) were briefly thawed, washed with 45 mL pre-warmed in in vitro GRO HT medium and centrifuged for 5 min at 50×g. The cell pellet was resuspended in 5 ml of Krebs-Henseleit […] (KHB). Cell viability was determined by trypan blue exclusion.
For the metabolic stability assay liver cells were distributed in WME containing 5% FCS to glass vials at a density of 1.0×10^6 vital cells/ml. The test compound was added to a final concentration of 1 μM. During incubation, the hepatocyte suspensions were continuously shaken at 580 rpm and aliquots were taken at 2, 8, 16, 30, 45 and 90 min, to which equal volumes of cold methanol were immediately added. Samples were frozen at −20° C. over night, after subsequently centrifuged for 15 minutes at 3000 rpm and the supernatant was analyzed with an Agilent 1290 HPLC-system with LCMS/MS detection.
The half-life of a test compound was determined from the concentration-time plot. From the half-life the intrinsic clearances were calculated. Together with the additional parameters liver blood flow, amount of liver cells in vivo and in vitro. The hepatic in vivo blood clearance (CL) and the maximal oral bioavailability (Fmax) was calculated.

Data set [2] can be described thus: In vivo pharmacokinetics in dogs. As to conditions: female, Beagle, dog, plasma, iv, after i.v., read-out: clearance in dogs (CLp) (converted). How it is done: For in vivo pharmacokinetic experiments test compounds were administered to non-rodents (e.g. female Beagle dogs) intravenously at doses of 0.1 to 1 mg/kg and intragastral at doses of 0.3 to 3 mg/kg formulated as solutions using solubilizers such as PEG400 in well-tolerated amounts and are usually given as short term infusion (15 min).
Blood samples were taken e.g. at 2 min, 8 min, 15 min, 30 min, 45 min, 1 h, 2 h, 4 h, 6 h, 8 h and 24 h after dosing from the vena saphena. Depending on the expected half-life additional samples were taken at later time points (e.g. 48 h, 72 h).
For pharmacokinetics after intragastral administration test compounds were given intragastral to fasted non-rodents (e.g. dogs). Blood samples were taken e.g. at 5 min, 15 min, 30 min, 45 min, 1 h, 2 h, 4 h, 6 h, 8 h and 24 h after dosing. Depending on the expected half-life additional samples were taken at later time points (e.g. 48 h, 72 h). Blood was collected into Lithium-Heparin tubes (Monovetten®, Sarstedt) and centrifuged for 15 min at 3000 rpm. […] PK parameters were calculated by non-compartmental analysis using a PK calculation software. […]
PK parameters calculated from concentration time profiles after i.g.: Cmax: Maximal plasma concentration (in mg/L); Cmaxnorm: Cmax divided by the administered dose (in kg/L); Tmax: Time point at which Cmax was observed (in h). […]

The next data set has as its system HeLa cells. The data set can be described thus: HeLa cell viability assay (compound sensitivity testing). The class given is cell-based. As to conditions: Homo sapiens, incubated for 48 hours. How it is done: 1000 HeLa (DMEM), cells were plated in a 384-well plate in 40 μl of corresponding growth media supplemented with 10% Fetal Bovine Serum. 24 hours after plating, indicated compounds were added at indicated concentrations and incubated for 48 hours. Cell viability was assessed as described in Compound library screening in NCI-H1734 and A549 cell lines.

The target in another data set is T1, human full length PDE3A (Homo sapiens, UniProt Q14432).
T1 construct: Sf9 cells overexpressing human full length PDE3A; purchased SB Drug Discovery, UK; host or cells: Sf9 insect cells (cell extract, not purified)
In words: PDE3A enzyme inhibition, 3H-cAMP scintillation proximity assay. It is filed as biochemical. How it is done:
(§1) The commercially available ^3H-cAMP Scintillation Proximity Assay (SPA, Perkin Elmer) system was used for enzyme inhibition studies. For the determination of the in vitro effect of test substances on the PDE3A reactions 2 μl of the respective test compound solution in DMSO (serial dilutions) were placed in wells of microtiter plates (Isoplate-96/200W; Perkin Elmer). 50 μl of a dilution of PDE3A cell extract from Sf9 cells overexpressing human full length PDE3A (SB Drug Discovery, UK) in buffer A (50 mM Tris/HCl pH 7.5, 8.3 mM MgCl2, 1.7 mM EDTA, 0.2% BSA) was added. The dilution of the PDE3A cell extract was chosen such that the reaction kinetics was linear and less than 70% of the substrate was consumed (typical dilution 1:5000). The reaction was started by addition of 50 μl (0.025 μCi) of 1:2000 in buffer A w/o BSA diluted substrate [8-^3H] adenosine 3′, 5′-cyclic phosphate (1 μCi/μl; Perkin Elmer). After incubation at room temperature for 60 min, the reaction was stopped by addition of 25 μl of a suspension containing 18 mg/ml yttrium scintillation proximity beads (Perkin Elmer) in water. The microtiter plates were sealed and measured in a Microbeta scintillation counter (PerkinElmer Wallac). IC50 values were determined from sigmoidal curves by plotting percentage PDE3A activity vs log compound concentration.
In general terms: Scintillation proximity formats need no separation of bound from free tracer.

The test system of a further data set is A549. The data set can be described thus: Cell proliferation measurement (Cell Titer Glo, 72 h). As to conditions: Homo sapiens, A549, Lung adenocarcinoma, printed as (inactive). It is filed as cell-based. The method, then: (§2) The antiproliferative activity of the compounds of the general formula (I) was examined in vitro in human cancer cells. For this purpose, 1000 cells, including HuT78 cells, 500 HeLa cells, or 500 A2058 cells, were plated in 384-well plates with appropriate growth medium and incubated at 37° C. overnight. After 24 h, the cells on the test plate were treated with the compounds of the general formula (I) as and incubated at 37° C. for 72 h. The compounds were added to the cells by means of an HP D300 digital dispenser in a 10 (or more)—step dilution series. As control, the cells were treated with vehicle (DMSO at 0.3% final concentration). After 72 h, the cells were treated with 20 µl/well of 50% CTG solution in PBS (Promega Cell Titer Glo (catalogue # G755B and G756B)) and incubated at room temperature for 10 min, and luminescence was measured by means of a VICTOR V (Perkin Elmer), in order to determine cell viability at the end of treatment. The percentage effect on cell growth and the IC50 derived therefrom were determined for each test substance using the values from untreated wells (=percent viability). The IC50 values were calculated using a 4-parameter fit.
(ATP-based viability assays read luminescence as a measure of living cells.)

The test system of another data set is HeLa. The description is as above. It is filed as cell-based. As to conditions: Homo sapiens, Cervical Cancer. The method, then:
as §2

The test system of another data set is IGR37. The description is as above. The class given is cell-based. As to conditions: Homo sapiens, IGR-37, IGR37, Melanoma. The method, then: as §2
Another data set concerns SKMEL3. The data set is described as above. It is filed as cell-based. As to conditions: Homo sapiens, SK-MEL3, SKMEL3, Melanoma. How it is done:
as §2

A further data set relates to A2058 xenograft. In words: In vivo xenotransplantation model. More on the design: species or system mice. As to conditions: A2058, Melanoma, 40 mg/kg 2QD p.o. How it is done:
(§3) The anti-tumor activity of Compound 1 was examined in murine xenotransplantation models of human cancer. For this purpose, mice were implanted subcutaneously with tumor cells. At a mean tumor size of 20-40 mm^2 animals were randomized into treatment and control groups (at least n=10 animals/group) and treatment started with vehicle only or Compound 1 (formulation: 90% PEG400/10% Ethanol; application route: per os (“p.o.”), orally). The oral application volume was 10 ml/kg. In the case of twice daily treatments, the time interval between two applications per day was 6-7h. The tumor size and the body weight were determined at least weekly. The tumor area was detected by means of an electronic caliper [length (mm)×width (mm)]. The experiment was ended when the tumors of the vehicle control reached the pre-determined ethical endpoint based on German and European animal welfare regulations. In vivo anti-tumor efficacy is presented as T/C ratio at study end (Treatment/Control; mean tumor area or weight of treatment group/mean tumor area or weight of control group) in Table 7. A compound having a T/C below 0.5 is defined as active (i.e., effective). Statistical analysis was assessed using SigmaStat software. A one-way analysis of variance was performed and differences to the control were compared by a pair-wise comparison procedure (Dunn's method).

A further data set relates to HeLa xenograft. The data set can be described thus: In vivo xenotransplantation model. On the set-up: species or system mice. As to conditions: Cervical cancer, 10 mg/kg 2QD p.o., study end. How it is done:
as §3

Another data set relates to IGR-37 xenograft. In words: In vivo xenotransplantation model. As to conditions: IGR-37, Melanoma, 40 mg/kg 2QD p.o. More on the design: species or system mice. How it is done:
as §3

Another data set concerns SK-MEL3 xenograft. The data set can be described thus: In vivo xenotransplantation model. As to conditions: SK-MEL3, Melanoma, 40 mg/kg 2QD p.o. On the set-up: species or system mice. The method, then:
as §3

For another data set, the system named is PDE3A-CRISPR A2058 cells. The data set can be described thus: Dose response in A2058 cells with CRISPR knockout of PDE3A. It is filed as cell-based, human. The method, then: as §2
CRISPR target sites were identified using the MIT CRISPR Design Tool (online MIT CRISPR design portal). For cloning of sgRNAs, forward and reverse oligonucleotides (oligos) were annealed, phosphorylated and ligated into BsmBI-digested pXPR_BRD001. Oligo sequences are as follows:
To produce lentivirus, 293T cells were co-transfected with pXPR_BRD001, psPAX2 and pMD2.G using calcium phosphate. Infected A2058 and HeLa cells were selected with 2 μg/ml of puromycin.

For data set [3], the system named is xenograft models of human tumors. The data set can be described thus: Murine xenotransplantation models of human cancer (overall). As to conditions: monotherapy, p.o., different xenograft models. The class given is in vivo, mice. The method, then:
as §3
A general note: In xenograft studies the graft and the host belong to different species.

A further data set deals with T2, human full length PDE3B (Homo sapiens, UniProt Q13370).
T2 construct: Sf9 cells overexpressing human full length PDE3B; purchased SB Drug Discovery, UK; host or cells: Sf9 insect cells (cell extract, not purified)
The data set can be described thus: PDE3B enzyme inhibition, 3H-cAMP scintillation proximity assay. It is filed as biochemical. The method, then: as §1, with “PDE3B” for “PDE3A”, “1:6000).” for “1:5000).”

These results are taken from patent publication US11142522B2, “Compounds, compositions and methods for cancer treatment” (THE BROAD INSTITUTE, INC., priority 2017, dated 2021).

Values joined by “and” are separate entries in the source; they are usually repeats but may differ in a detail not shown here. Equal entries are not always repeated. Marks after values point to notes of the source that are not given here.

T1 sequence (Q14432 whole entry): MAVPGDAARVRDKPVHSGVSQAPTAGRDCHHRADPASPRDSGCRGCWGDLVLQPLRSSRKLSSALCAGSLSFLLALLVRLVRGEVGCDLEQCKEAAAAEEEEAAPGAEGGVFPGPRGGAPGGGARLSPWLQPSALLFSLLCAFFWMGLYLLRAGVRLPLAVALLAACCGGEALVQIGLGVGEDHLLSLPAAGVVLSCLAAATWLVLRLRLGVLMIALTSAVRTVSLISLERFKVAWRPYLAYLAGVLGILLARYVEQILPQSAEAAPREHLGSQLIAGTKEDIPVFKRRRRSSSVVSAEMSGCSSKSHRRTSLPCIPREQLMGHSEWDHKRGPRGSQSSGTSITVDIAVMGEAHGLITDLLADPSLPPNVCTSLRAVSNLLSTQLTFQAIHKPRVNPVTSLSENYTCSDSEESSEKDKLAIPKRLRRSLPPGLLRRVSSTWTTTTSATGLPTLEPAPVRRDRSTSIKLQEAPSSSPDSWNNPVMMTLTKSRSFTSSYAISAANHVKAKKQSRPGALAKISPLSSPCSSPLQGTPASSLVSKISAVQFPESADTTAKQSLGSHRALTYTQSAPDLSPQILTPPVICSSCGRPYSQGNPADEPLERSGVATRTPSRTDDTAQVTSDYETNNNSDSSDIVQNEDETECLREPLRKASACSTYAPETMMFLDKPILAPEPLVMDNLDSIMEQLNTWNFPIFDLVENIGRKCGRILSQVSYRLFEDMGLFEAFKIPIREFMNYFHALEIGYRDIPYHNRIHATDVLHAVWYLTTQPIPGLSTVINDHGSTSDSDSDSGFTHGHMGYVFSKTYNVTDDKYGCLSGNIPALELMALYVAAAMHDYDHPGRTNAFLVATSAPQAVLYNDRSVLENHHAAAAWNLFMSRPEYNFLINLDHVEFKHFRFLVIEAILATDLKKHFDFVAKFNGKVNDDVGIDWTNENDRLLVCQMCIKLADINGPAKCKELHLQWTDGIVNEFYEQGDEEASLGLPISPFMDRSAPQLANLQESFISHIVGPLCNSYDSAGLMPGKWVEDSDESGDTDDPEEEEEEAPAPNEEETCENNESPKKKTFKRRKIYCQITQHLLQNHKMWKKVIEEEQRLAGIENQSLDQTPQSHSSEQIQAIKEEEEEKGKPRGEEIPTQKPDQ
T2 sequence (Q13370 whole entry): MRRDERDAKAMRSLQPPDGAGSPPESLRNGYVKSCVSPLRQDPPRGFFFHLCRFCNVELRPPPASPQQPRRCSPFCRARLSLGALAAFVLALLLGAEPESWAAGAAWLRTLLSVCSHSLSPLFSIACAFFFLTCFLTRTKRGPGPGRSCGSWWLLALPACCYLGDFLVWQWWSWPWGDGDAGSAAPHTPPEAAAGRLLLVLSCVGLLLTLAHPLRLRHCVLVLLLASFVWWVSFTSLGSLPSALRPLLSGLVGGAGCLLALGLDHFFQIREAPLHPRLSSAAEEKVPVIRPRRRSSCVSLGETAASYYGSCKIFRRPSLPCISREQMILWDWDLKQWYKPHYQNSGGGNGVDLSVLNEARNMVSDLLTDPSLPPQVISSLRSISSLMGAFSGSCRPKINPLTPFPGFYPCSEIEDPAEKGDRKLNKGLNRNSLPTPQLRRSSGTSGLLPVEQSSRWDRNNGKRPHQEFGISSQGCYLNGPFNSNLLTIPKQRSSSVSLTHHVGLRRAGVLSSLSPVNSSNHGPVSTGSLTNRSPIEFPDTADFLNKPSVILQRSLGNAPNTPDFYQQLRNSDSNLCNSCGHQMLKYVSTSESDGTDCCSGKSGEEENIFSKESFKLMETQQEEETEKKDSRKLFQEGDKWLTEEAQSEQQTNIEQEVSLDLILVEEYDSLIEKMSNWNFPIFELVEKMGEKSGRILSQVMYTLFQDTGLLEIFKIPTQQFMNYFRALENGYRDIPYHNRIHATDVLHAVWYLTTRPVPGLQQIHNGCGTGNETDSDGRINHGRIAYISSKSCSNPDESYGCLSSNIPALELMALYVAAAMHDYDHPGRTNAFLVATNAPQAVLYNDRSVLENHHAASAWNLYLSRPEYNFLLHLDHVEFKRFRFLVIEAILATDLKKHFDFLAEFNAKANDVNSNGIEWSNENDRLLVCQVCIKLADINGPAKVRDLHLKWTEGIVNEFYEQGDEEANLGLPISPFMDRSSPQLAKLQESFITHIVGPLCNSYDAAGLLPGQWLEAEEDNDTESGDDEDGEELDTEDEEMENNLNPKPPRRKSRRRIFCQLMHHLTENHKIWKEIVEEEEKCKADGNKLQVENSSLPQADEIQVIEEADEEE

For orientation: clearance means the rate of elimination divided by the concentration. With `C[C@@H]1CC(=O)NN=C1c1ccc(N2CCOCC2)c(F)c1` [(5R)-6-[3-fluoro-4-(morpholin-4-yl)phenyl]-5-methyl-4,5-dihydropyridazin-3(2H)-one, reference compound], the “predicted maximal oral bioavailability (Fmax)” value in data set [1] is recorded as 49%. Besides, the clearance in [2] was 28.3 mL/min/kg.
As usually defined, the EC50 is the concentration that produces a half-maximal response. A high value points to lower potency in that assay. For orientation: IC50 means the concentration that gives 50% inhibition. A high value points to weaker potency. With `C[C@@H]1CC(=O)NN=C1c1cc(F)c(N2CCOCC2)c(F)c1` [Compound 1, (5R)-6-[3,5-difluoro-4-(morpholin-4-yl)phenyl]-5-methyl-4,5-dihydropyridazin-3(2H)-one], in the data set on HeLa cells, a half-maximal response (EC50) required 1.1 nM. For the same molecule, the IC50 was 5 nM and 4.6 nM at human full length PDE3A; greater than 600 nM in the data set with A549; 0.852 nM in the data set with HeLa; 2.19 nM in the data set on IGR37; 1.01 nM in the data set on SKMEL3. In addition, in [1], the “predicted maximal oral bioavailability (Fmax)” value is 66%. In addition, the clearance in data set [2] was 12.8 mL/min/kg. In addition, the figures for the “T/C (mean final tumor weight of treatment versus control)” value in the data set with A2058 xenograft, in the data set on IGR-37 xenograft and with SK-MEL3 xenograft were 0.07b)*, 0.11b)* and 0.05b)*, respectively. Besides, in the data set on HeLa xenograft, the “T/C (mean tumor area of treatment versus control)” value was determined as 0.01a)*. The “response to cytotoxic effects” value in the data set with PDE3A-CRISPR A2058 cells (ectopic expression of GFP) is “lack of response”; in the data set on PDE3A-CRISPR A2058 cells (ectopic expression of PDE3B), “re-sensitized”; in the data set with PDE3A-CRISPR A2058 cells (ectopic expression of PDE3B, listed as compound 1), “restores sensitivity”. In addition, the anti-tumor efficacy result in [3] is listed as “potent anti-tumor efficacy”.
`C[C@@H]1CC(=O)NN=C1c1cc(Cl)c(N2CCOCC2)c(Cl)c1` [Compound 2, 6-[3,5-dichloro-4-(morpholin-4-yl)phenyl]-5-methyl-4,5-dihydropyridazin-3(2H)-one] gave an EC50 in the data set on HeLa cells of 1.9 nM. Further, the IC50 came to 4 nM on human full length PDE3A and 11 nM at human full length PDE3B.
